Measured values published in patent US10913738B2 (BRISTOL-MYERS SQUIBB COMPANY, priority 2017, dated 2021).
Read-outs that look alike come from different tables or passages of the source.

Assays:
[1] = target: T1, His-GST-TVMV-hRIPK1(1-324) (Homo sapiens, UniProt Q13546); assay: RIPK1 HTRF Binding Assay
T1 construct: The coding region of human RIPK1(1-324) flanked by NdeI site at 5′ end; made in house; host or cells: Spodoptera frugiperda (Sf9) insect cells, baculovirus
T1 sequence (Q13546 1-324): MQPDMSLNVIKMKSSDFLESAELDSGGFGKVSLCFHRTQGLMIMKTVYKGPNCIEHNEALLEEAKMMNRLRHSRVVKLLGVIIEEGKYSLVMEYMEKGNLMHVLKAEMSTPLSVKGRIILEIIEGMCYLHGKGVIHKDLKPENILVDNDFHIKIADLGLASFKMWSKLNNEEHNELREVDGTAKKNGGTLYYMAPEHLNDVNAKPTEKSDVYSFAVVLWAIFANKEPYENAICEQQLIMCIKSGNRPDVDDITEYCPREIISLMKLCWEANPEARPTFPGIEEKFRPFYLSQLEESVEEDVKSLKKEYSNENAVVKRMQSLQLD

[2] = system: MLKL phosphorylation in HT29-L23 human colorectal adenocarcinoma cells; assay: MLKL Phosphorylation High-Content Assay; assay type: cell-based; settings: Homo sapiens
Procedure, shortened: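 IC50 and Ymax obtained by 4-parameter logistic fitting of MLKL phosphorylation, measured as mean circ-ring average intensity ratio from high-content images. Staining used an anti-phospho-S358 MLKL antibody overnight at 4° C., following six-hour cell incubation at 37° C.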

[3] = x marks IC50 class <20 nM, read-out: RIPK1 HTRF binding <20 nM
[4] = x marks IC50 class <20 nM, read-out: pMLKL cell activity <20 nM
[5] = x marks IC50 class 20-200 nM, read-out: pMLKL cell activity 20-200 nM
[6] = x marks IC50 class 20-200 nM, read-out: RIPK1 HTRF binding 20-200 nM
[7] = x marks IC50 class >200 nM, read-out: pMLKL cell activity >200 nM

Row | Compound | IC50 [1, 3] [nM] | IC50 [2, 5] [nM] | IC50 [1, 6] [nM] | IC50 [2, 7] [nM] | other results
1 | CCOc1ncc(-c2ccn3nc(N)nc3c2)cc1C(=O)NCc1ccccc1Sc1ccccc1CO [Example 275, 5-{2-amino-[1,2,4]triazolo[1,5-a]pyridin-7-yl}-2-ethoxy-N-[(2-{[2-(hydroxymethyl)phenyl]sulfanyl}phenyl)methyl]pyridine-3-carboxamide] | < 20 | – | – | – | IC50 [2, 4]: < 20 nM
2 | [2H]C([2H])([2H])[C@@H](NC(=O)c1cc(-c2ccn3nc(N)nc3c2)cnc1C)c1cc(C(F)(F)F)ccc1F [Example 303, (R)-5-(2-amino-[1,2,4]triazolo[1,5-a]pyridin-7-yl)-N-(1-(2-fluoro-5-(trifluoromethyl)phenyl)ethyl-2,2,2-H3)-2-methylnicotinamide] | < 20 | 20 to 200 | – | – | –
3 | Nc1nc2cc(-c3cnc(N)c(C(=O)NCc4ccccc4OCC4CCC4)c3)ccn2n1 [Example 49, 2-Amino-5-{2-amino-[1,2,4]triazolo[1,5-a]pyridin-7-yl}-N-{[2-(cyclobutylmethoxy)phenyl]methyl}pyridine-3-carboxamide] | < 20 | 20 to 200 | – | – | –
4 | Nc1nc2cc(-c3cnc(N)c(C(=O)NCc4ccccc4OC4CCCC4)c3)ccn2n1 [Example 54, 2-Amino-5-{2-amino-[1,2,4]triazolo[1,5-a]pyridin-7-yl}-N-{[2-(cyclopentyloxy)phenyl]methyl}pyridine-3-carboxamide] | < 20 | 20 to 200 | – | – | –
5 | Cc1cnc(-c2ccn3nc(N)nc3c2)nc1C(=O)NCCC(C)c1ccccc1 (stereo not shown) [Example 411, 2-(2-amino-[1,2,4]triazolo[1,5-a]pyridin-7-yl)-5-methyl-N-(3-phenylbutyl)pyrimidine-4-carboxamide] | – | – | 20 to 200 | > 200 | –
6 | [2H]C([2H])([2H])[C@@H](NC(=O)c1cc(-c2ccn3nc(N)nc3c2)cnc1C)c1cc(OC(F)(F)F)ccc1F [Example 299, (R)-5-(2-amino-[1,2,4]triazolo[1,5-a]pyridin-7-yl)-N-(1-(2-fluoro-5-(trifluoromethoxy)phenyl)ethyl-2,2,2-d3)-2-methylnicotinamide] | < 20 | – | – | – | IC50 [2, 4]: < 20 nM
7 | COc1nc(C)c(-c2ccn3nc(N)nc3c2)cc1C(=O)NCc1cc(F)ccc1C(=O)N1CCC(F)(F)C1 [Example 381, 5-(2-amino-[1,2,4]triazolo[1,5-a]pyridin-7-yl)-N-(2-(3,3-difluoropyrrolidine-1-carbonyl)-5-fluorobenzyl)-2-methoxy-6-methylnicotinamide] | < 20 | – | – | – | IC50 [2, 4]: < 20 nM
8 | COc1nc(C)c(-c2ccn3nc(N)nc3c2)cc1C(=O)NCc1ccccc1OCC1CC1 [Example 221, 5-{2-amino-[1,2,4]triazolo[1,5-a]pyridin-7-yl}-N-{[2-(cyclopropylmethoxy)phenyl]methyl}-2-methoxy-6-methylpyridine-3-carboxamide] | < 20 | – | – | – | IC50 [2, 4]: < 20 nM
9 | Cc1ncc(C(=O)NCc2cc(OC(F)(F)F)ccc2F)cc1-c1ccn2nc(N)nc2c1 [Example 256, 5-{2-amino-[1,2,4]triazolo[1,5-a]pyridin-7-yl}-N-{[2-fluoro-5-(trifluoromethoxy)phenyl]methyl}-6-methylpyridine-3-carboxamide] | – | – | 20 to 200 | > 200 | –
10 | COc1ncc(C(=O)NCc2ccccc2OCC2CC2)cc1-c1ccn2nc(N)nc2c1 [Example 28, 5-{2-Amino-[1,2,4]triazolo[1,5-a]pyridin-7-yl}-N-{[2-(cyclopropylmethoxy)phenyl]methyl}-6-methoxypyridine-3-carboxamide] | < 20 | 20 to 200 | – | – | –
11 | COc1nc(C)c(-c2ccn3nc(N)nc3c2)cc1C(=O)NCc1cc(C(F)(F)F)cc(Cl)c1F [Example 336, 5-(2-amino-[1,2,4]triazolo[1,5-a]pyridin-7-yl)-N-(3-chloro-2-fluoro-5-(trifluoromethyl)benzyl)-2-methoxy-6-methylnicotinamide] | – | 20 to 200 | 20 to 200 | – | –
12 | COc1ncc(-c2ccn3nc(N)nc3c2)cc1C(=O)NCc1cc(F)cc(F)c1OC(C)C [Example 22, 5-{2-Amino-[1,2,4]triazolo[1,5-a]pyridin-7-yl}-N-{[3,5-difluoro-2-(propan-2-yloxy)phenyl]methyl}-2-methoxypyridine-3-carboxamide] | < 20 | – | – | – | IC50 [2, 4]: < 20 nM
13 | COc1ncc(-c2ccn3nc(N)nc3c2)cc1C(=O)NCc1c[nH]nc1-c1ccccc1 [Example 152, 5-{2-amino-[1,2,4]triazolo[1,5-a]pyridin-7-yl}-2-methoxy-N-[(3-phenyl-1H-pyrazol-4-yl)methyl]pyridine-3-carboxamide] | – | 20 to 200 | 20 to 200 | – | –
14 | Cc1ncc(-c2ccn3nc(N)nc3c2)cc1C(=O)NC(C)c1cc(C(F)(F)F)ccc1F (single isomer, unassigned) [Example 99-1, 5-{2-amino-[1,2,4]triazolo[1,5-a]pyridin-7-yl}-N-{1-[2-fluoro-5-(trifluoromethyl)phenyl]ethyl}-2-methylpyridine-3-carboxamide] | – | 20 to 200 | 20 to 200 | – | –
15 | Cc1ncc(C(=O)NCc2cccnc2OCC2CCCC2)cc1-c1ccn2nc(N)nc2c1 [Example 258, 5-{2-amino-[1,2,4]triazolo[1,5-a]pyridin-7-yl}-N-{[2-(cyclopentylmethoxy)pyridin-3-yl]methyl}-6-methylpyridine-3-carboxamide] | < 20 | – | – | > 200 | –
16 | COc1ncc(-c2ccn3nc(N)nc3c2)cc1NC(=O)Cc1cccc(C(F)(F)F)c1 [Example 416, N-(5-(2-amino-[1,2,4]triazolo[1,5-a]pyridin-7-yl)-2-methoxypyridin-3-yl)-2-(3-(trifluoromethyl)phenyl)acetamide] | – | – | 20 to 200 | > 200 | –
17 | COc1ncc(-c2ccn3nc(N)nc3c2)cc1C(=O)NCc1cccnc1OCC1CCCC1 [Example 127, 5-{2-amino-[1,2,4]triazolo[1,5-a]pyridin-7-yl}-N-{[2-(cyclopentylmethoxy)pyridin-3-yl]methyl}-2-methoxypyridine-3-carboxamide] | < 20 | 20 to 200 | – | – | –
18 | Cc1ncc(-c2ccn3nc(N)nc3c2)cc1C(=O)NCc1cccc(OC(F)(F)F)c1 [Example 246, 5-{2-amino-[1,2,4]triazolo[1,5-a]pyridin-7-yl}-2-methyl-N-{[3-(trifluoromethoxy)phenyl]methyl}pyridine-3-carboxamide] | – | – | 20 to 200 | > 200 | –
19 | Cc1ncc(-c2ccn3nc(N)nc3c2)cc1C(=O)NCc1ccccc1OC(C)C [Example 35, 5-{2-Amino-[1,2,4]triazolo[1,5-a]pyridin-7-yl}-2-methyl-N-{[2-(propan-2-yloxy)phenyl]methyl}pyridine-3-carboxamide] | – | 20 to 200 | 20 to 200 | – | –
20 | Cc1ncc(-c2ccn3nc(N)nc3c2)cc1NC(=O)c1cc(OC(F)(F)F)ccc1F [Example 419, N-(5-(2-amino-[1,2,4]triazolo[1,5-a]pyridin-7-yl)-2-methylpyridin-3-yl)-2-fluoro-5-(trifluoromethoxy)benzamide] | < 20 | – | – | > 200 | –
21 | [2H]C([2H])([2H])Oc1ncc(-c2ccn3nc(N)nc3c2)cc1C(=O)NC(C)c1ccccc1OC(F)(F)F (single isomer, unassigned) [Example 95-1, 5-{2-amino-[1,2,4]triazolo[1,5-a]pyridin-7-yl}-2-(deutero)methoxy-N-{1-[2-(trifluoromethoxy)phenyl]ethyl}pyridine-3-carboxamide] | – | – | – | > 200 | IC50 ([1]; x marks IC50 class >200 nM, read-out: RIPK1 HTRF binding >200 nM): > 200 nM
22 | Cc1ncc(-c2ccn3nc(N)nc3c2)cc1C(=O)NCc1ncccc1OCC1CCC1 [Example 236, 5-{2-amino-[1,2,4]triazolo[1,5-a]pyridin-7-yl}-N-{[3-(cyclobutylmethoxy)pyridin-2-yl]methyl}-2-methypyridine-3-carboxamide] | – | 20 to 200 | 20 to 200 | – | –
23 | COc1nc(C)c(-c2ccn3nc(N)nc3c2)cc1C(=O)NCc1ccccc1OC(F)(F)F [Example 211, 5-{2-amino-[1,2,4]triazolo[1,5-a]pyridin-7-yl}-2-methoxy-6-methyl-N-{[2-(trifluoromethoxy)phenyl]methyl}pyridine-3-carboxamide] | < 20 | 20 to 200 | – | – | –
24 | CNc1cn2nc(-c3cnc(OC)c(C(=O)N[C@@H](C)c4cc(OC(F)(F)F)ccc4F)c3)ccc2n1 [Example 374, (S)—N-(1-(2-fluoro-5-(trifluoromethoxy)phenyl)ethyl)-2-methoxy-5-(2-(methylamino)imidazo[1,2-b]pyridazin-6-yl)nicotinamide] | < 20 | 20 to 200 | – | – | –
25 | COc1ncc(-c2ccn3nc(N)nc3c2)cc1C(=O)NCc1cc(F)cc(F)c1OC1CCOC(C)C1 (stereo not shown) [Example 361, 5-(2-amino-[1,2,4]triazolo[1,5-a]pyridin-7-yl)-N-(3,5-difluoro-2-((2-methyltetrahydro-2H-pyran-4-yl)oxy)benzyl)-2-methoxynicotinamide] | < 20 | 20 to 200 | – | – | –
26 | CC(CCNC(=O)c1cncc(-c2ccn3nc(N)nc3c2)c1)c1ccccc1 (stereo not shown) [Example 73, 5-{2-Amino-[1,2,4]triazolo[1,5-a]pyridin-7-yl}-N-(3-phenylbutyl)pyridine-3-carboxamide] | < 20 | – | – | > 200 | –
